Earlier results in patent US12527979B2, “Treatment of HER3-mutated cancer by administration of anti-HER3 antibody-drug conjugate” (DAIICHI SANKYO COMPANY, LIMITED, priority 2018, dated 2026).
Like-named read-outs stand apart in the source and are kept apart here.

Legend:
topoisomerase I = target: T1, topoisomerase I (Homo sapiens, UniProt P11387)
T1 sequence (P11387 1-765): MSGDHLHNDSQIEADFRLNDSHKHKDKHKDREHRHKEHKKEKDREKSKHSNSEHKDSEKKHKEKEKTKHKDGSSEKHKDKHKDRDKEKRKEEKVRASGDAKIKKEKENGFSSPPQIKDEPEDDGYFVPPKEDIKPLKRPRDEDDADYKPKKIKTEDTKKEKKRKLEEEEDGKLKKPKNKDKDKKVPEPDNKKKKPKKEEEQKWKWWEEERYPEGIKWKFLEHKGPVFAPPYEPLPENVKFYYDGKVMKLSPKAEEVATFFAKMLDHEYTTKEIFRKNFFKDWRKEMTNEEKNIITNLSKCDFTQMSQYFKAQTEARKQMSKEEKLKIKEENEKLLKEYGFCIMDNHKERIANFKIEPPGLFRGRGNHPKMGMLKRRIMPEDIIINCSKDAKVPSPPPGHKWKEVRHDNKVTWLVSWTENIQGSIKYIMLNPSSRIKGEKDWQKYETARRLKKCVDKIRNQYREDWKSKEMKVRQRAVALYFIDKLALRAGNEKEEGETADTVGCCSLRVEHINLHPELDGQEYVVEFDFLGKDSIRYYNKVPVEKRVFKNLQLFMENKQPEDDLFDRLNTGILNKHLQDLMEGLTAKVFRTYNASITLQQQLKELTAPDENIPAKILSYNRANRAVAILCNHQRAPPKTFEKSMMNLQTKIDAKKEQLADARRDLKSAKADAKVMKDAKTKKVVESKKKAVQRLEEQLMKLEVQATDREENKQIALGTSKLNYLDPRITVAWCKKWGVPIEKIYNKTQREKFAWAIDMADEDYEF

HER3-mutated cancers [1] = conditions: in vitro and in vivo, in situations where HER2 is overexpressed
HER3-mutated cancers [2] = conditions: clinical studies

Structure (SMILES): CC[C@@]1(O)C(=O)OCc2c1cc1n(c2=O)Cc2c-1nc1cc(F)c(C)c3c1c2[C@@H](NC(=O)CO)CC3
- topoisomerase I inhibitory effect (topoisomerase I): confirmed to have a topoisomerase I inhibitory effect

Structure (SMILES): CS(=O)(=O)CCNCc1ccc(-c2ccc3ncnc(Nc4ccc(OCc5cccc(F)c5)c(Cl)c4)c3c2)o1 [lapatinib]
- effectiveness against HER3-mutated cancers (HER3-mutated cancers [1]): exhibited effectiveness

Structure (SMILES): CCOc1cc2ncc(C#N)c(Nc3ccc(OCc4ccccn4)c(Cl)c3)c2cc1NC(=O)/C=C/CN(C)C [neratinib]
- effectiveness against HER3-mutated cancers (HER3-mutated cancers [2]): no effectiveness
